{"source": "a melting point compilation (Tetko et al.; mined from patent text by program, amines drawn as free bases though some values may be those of a salt)", "note": "Residues, ends and D or L forms follow the SMILES beside them. *: point of attachment. Cbz = O=C(OCc1ccccc1)*; OtBu = CC(C)(C)O*; βAla = NCCC(=O)O"}
{"units": {"melting point": "°C"}}
{"smiles": "O=S1(=O)NC(C2=CCCCC2)Nc2cc(Cl)ccc21", "note": "(stereo not given)", "melting point": "252 to 254"}
{"smiles": "COc1ccc(N2CCN(c3c(C)c(C)c4c(c3C)C(O)(c3ccc(F)nc3)C(C)(C)O4)CC2)cc1", "note": "(stereo not given)", "melting point": "129 to 131"}
{"smiles": "Nc1ccc(Oc2ccc3ccc(Oc4ccc(N)c(O)c4)cc3c2)cc1O", "melting point": "201 to 210"}
{"smiles": "COC(=O)COCCOc1ccc([N+](=O)[O-])cc1", "melting point": "96 to 97.8"}
{"smiles": "CCCCc1cnc(-c2ccc(C#N)c(F)c2)nc1", "melting point": 87}
{"smiles": "N#CN1c2ccccc2CC(Cl)c2ccccc21", "note": "(stereo not given)", "melting point": "139 to 140"}
{"smiles": "CC(=O)c1ccc(-c2ccccc2F)cc1", "melting point": "84.5 to 86.5"}
{"smiles": "COc1cc(O)c(C(=O)C=Cc2ccc3nc[nH]c3c2)c(OC)c1", "melting point": "147 to 149"}
{"smiles": "CCC1(C)NC(=O)N=C1SCc1ccccc1N(C)C", "note": "(stereo not given)", "melting point": "111 to 113"}
{"smiles": "Cc1cc(-c2ccc3c(c2)c2cc(-c4ccc(Cl)cc4Cl)c(=O)n(C)c2n3C)[nH]n1", "melting point": "309 to 310"}
{"smiles": "CSC1NC(=O)N(C)C(=O)N1C", "note": "(stereo not given)", "melting point": "137 to 139"}
{"smiles": "Cn1ncc(Cl)c(NCCCO)c1=O", "melting point": "65 to 66"}
{"smiles": "ClC1=NC(C2CC2)Nc2cscc21", "note": "(stereo not given)", "melting point": "86.5 to 88.5"}
{"smiles": "CCCCCCCCCCCCCCCCSCc1ccc(N(C)C)cc1", "melting point": "41 to 43"}
{"smiles": "CCC(Cc1cccc(F)c1)n1nnc2cc3c(cc2c1=O)OC1CCCN1C3=O", "note": "(stereo not given)", "melting point": "117 to 119"}
{"smiles": "Cc1cc(Cl)ccc1Cn1nc(OC(C)C)cc1CCCOc1nn(Cc2ccccc2)cc1CC(=O)O", "melting point": "81 to 82"}
{"smiles": "CC1(C)CC(=O)C2=C(C1)NC1=C(C(=O)CC(C)(C)C1)C2c1cc(Cl)cc(Cl)c1", "melting point": "288 to 290"}
{"smiles": "COc1ccc2c(c1OC)CC(c1ccccc1)CC2C#N", "note": "(stereo not given)", "melting point": "118 to 121"}
{"smiles": "Cc1nnnn1-c1ccccc1C(=O)O", "melting point": "157 to 160"}
{"smiles": "CC(=O)NC=Nc1ccc2nnc(-c3ncc([N+](=O)[O-])n3C)n2n1", "melting point": "237 to 241"}
{"smiles": "CCC(CO)Nc1nc(NCc2ccccc2N)c2ncn(C(C)C)c2n1", "note": "(racemic)", "melting point": "149 to 151"}
{"smiles": "COc1ccc2c(c1)CCN1C(=O)C3=C(CC21)NCCC3", "note": "(stereo not given)", "melting point": "202 to 205"}
{"smiles": "O=C(Nc1ccc(-n2nc(C(F)(F)F)cc2C2CC2)cc1)c1ccc2nccnc2c1", "melting point": "205 to 209"}
{"smiles": "CCC1CN(C2C(=O)N(c3c(Cl)cc(Cl)cc3Cl)N=C2NC(=O)c2cccc(NC(=O)COc3ccc(C(C)(C)CC)cc3C(C)(C)CC)c2)CCC1C", "note": "(stereo not given)", "melting point": "145 to 155"}
{"smiles": "CCS(=O)(=O)Nc1ccc(S(=O)(=O)C=CC#N)cc1", "melting point": "177 to 180"}
{"smiles": "O=c1ccc(-c2c(-c3ccccc3)nn3ccccc23)nn1CC1(O)CCNCC1", "melting point": "> 260"}
{"smiles": "CCOC(=O)c1cc(CC)sc1Nc1cc(C)ccc1[N+](=O)[O-]", "melting point": "55 to 57"}
{"smiles": "CC(C)C(NC(=O)C(CC(=O)OC(C)(C)C)NC(=O)CCNC(=O)OCc1ccccc1)C(=O)OC(C)(C)C", "note": "(stereo not given) ({Cbz-βAla}-Asp(OtBu)-Val-OtBu; configuration not given here)", "melting point": 126}
{"smiles": "ClCCCc1nc2ccccn2n1", "melting point": "56.5 to 57"}
{"smiles": "OCCCOC(c1ccccc1)(c1ccccc1)c1ccccc1", "melting point": "117 to 118"}
{"smiles": "NS(=O)(=O)c1ccccc1-c1ccc(C(=O)N2Cc3ccc(C(=O)NCc4cccnc4)n3Cc3ccccc32)cc1", "melting point": "153 to 156"}
{"smiles": "Cc1ccc(S(=O)(=O)ON=C2C3=C(C=C4OCCC42)CCCO3)cc1", "note": "(stereo not given)", "melting point": 118}
{"smiles": "CCOCCOC(=O)C(=O)Nc1nc(-c2ccccc2)cs1", "melting point": "109 to 110"}
{"smiles": "CN(C)C(=O)c1nc2n(n1)-c1ccccc1N(c1ccccc1)C2", "melting point": "150 to 165"}
{"smiles": "CCOC(=O)C1=C(C)Nc2ncnc(OC(C)C)c2C1c1ccccc1", "note": "(stereo not given)", "melting point": "201 to 202"}
{"smiles": "CCN(CC)c1nc2ccccc2n2c(C)nnc12", "melting point": "123 to 125"}
{"smiles": "C[C@]1(CN2CCN(C(=O)OCC=Cc3ccc(C(F)(F)F)cc3)CC2)Cn2cc([N+](=O)[O-])nc2O1", "melting point": "132 to 133"}
{"smiles": "COc1cc2cc(-c3c[nH]c4ccccc34)cnc2cc1OC", "melting point": "204 to 206"}
{"smiles": "Cc1nc(N)nc(N)c1-c1cc(Br)ccc1Cl", "melting point": "212 to 216"}
{"smiles": "CCS(=O)(=O)c1ccc(-c2coc3ccc(-c4nnc(C)o4)cc23)cc1F", "melting point": "200 to 201"}
{"smiles": "O=C(Oc1nc(Cl)c(Cl)cc1Cl)C(Cl)(Cl)Cl", "melting point": "58 to 60"}
{"smiles": "Cc1nccn1-c1cccc(C2=Nc3ccc(-c4ccc(F)cc4)cc3NC(=O)C2)c1", "melting point": 227}
{"smiles": "CC/C(=C(/C)C#N)c1cccc(O)c1", "melting point": "80 to 83"}
{"smiles": "N#CC(Cc1c[nH]cn1)(c1ccc(Cl)cc1)c1cccc(Cl)c1", "note": "(stereo not given)", "melting point": "138 to 140"}
{"smiles": "Cc1cc(C)c(CC(=O)O)cc1C", "melting point": "123 to 125"}
{"smiles": "O=S(=O)(Nc1cc(-c2ncc(C(F)(F)F)cc2Cl)ccc1Cl)c1ccc(Cl)cc1", "melting point": "156 to 157"}
{"smiles": "COC(=O)c1cc(OCCCOc2ccccc2-c2ccccc2)cc(OCCCOc2ccccc2-c2ccccc2)c1", "melting point": "77 to 79"}
{"smiles": "O=C(OCCn1c(-c2ccccc2)nc2cc(CN3CCN(C(c4ccccc4)c4ccccc4)CC3)ccc21)c1ccccc1", "melting point": 164}
{"smiles": "O=c1[nH]c2ncc(-c3ccc(F)cc3)nc2c(O)c1-c1c(F)cc(F)cc1F", "melting point": "285 to 288"}
{"smiles": "Cc1ccc2nc(Cl)c(C#N)c(Cl)c2c1", "melting point": 159}
